# Data reported in patent publication US10492491B2, “Insecticide composition including a synergistic agent” (priority 2015, dated 2019).
# Where two headings read alike, the source gives them in different places.
# How the values were obtained:
# Type in all cases: cell-based, Periplaneta americana
# [1] = tested on: cockroach Dorsal Unpaired Median (DUM) neurons; experiment: Whole-cell patch-clamp, current-clamp: DUM neuron spontaneous electrical activity; conditions: IR3535 at 10^-8 M; whole-cell configuration
# Protocol: (§1) Experiments were carried out on cockroach Dorsal Unpaired Median (DUM) neurons. Cockroach neuronal preparations are commonly used as biomedical models for vertebrates and invertebrates and DUM neurons are, furthermore, electrophysiologically and pharmacologically well characterized since most of the biophysical and pharmacological properties of ionic currents and receptors underlying and modulating their spontaneous action potentials have been established by using the well-known patch-clamp technique.
# Adult male cockroaches, Periplaneta americana (see FIG. 1), are taken from our laboratory colonies, which are maintained under standard conditions (29° C., photoperiod of 12 h light/12 h dark). Animals are immobilized dorsal-side up on a dissection dish. The dorsal cuticle, gut and some dorso-longitudinal muscles are removed to allow access to the ventral nerve cord. The abdominal nerve cord and its terminal abdominal ganglion (TAG), carefully dissected under a binocular microscope, are placed in normal saline. Animal care and handling procedures are in accordance with French institutional and national health guidelines. […]
# Electrical activity and neonicotinoïd-induced inward currents are recorded using the patch clamp technique in the whole-cell recording configuration under current-clamp and voltage-clamp mode, respectively. […] Signals are recorded with an Axopatch 200A amplifier. […]
# [2] = tested on: cockroach Dorsal Unpaired Median (DUM) neurons; conditions: for origin of the intracellular calcium concentration rise: with caffeine, omegaconotoxin, pirenzepine
# [3] = tested on: cockroach Dorsal Unpaired Median (DUM) neurons; experiment: Whole-cell patch-clamp, voltage-clamp: neonicotinoïd-induced inward currents; conditions: for inward current amplitude after pretreatment with low concentration of IR3535 (conclusion): DUM neurons pretreated with low concentration of IR3535; for induced inward current, insecticide alone (conclusion): act like agonists
# Protocol: as §1
# Adult male cockroaches, Periplaneta americana (see FIG. 1), are taken from our laboratory colonies, which are maintained under standard conditions (29° C., photoperiod of 12 h light/12 h dark). Animals are immobilized dorsal-side up on a dissection dish. The dorsal cuticle, gut and some dorso-longitudinal muscles are removed to allow access to the ventral nerve cord. The abdominal nerve cord and its terminal abdominal ganglion (TAG), carefully dissected under a binocular microscope, are placed in normal saline. Animal care and handling procedures are in accordance with French institutional and national health guidelines.
# The ventral nerve cord and its terminal abdominal ganglion (TAG) are carefully dissected under a binocular microscope and placed in normal cockroach saline containing (in mM) 200 NaCl, 3.1 KCl, 5 CaCl2, 4 MgCl2, 50 sucrose, and 10 […] (HEPES); pH was adjusted to 7.4 with NaOH. Isolation of adult DUM neuron cell bodies are performed under sterile conditions using enzymatic digestion and mechanical dissociation of the median parts of the TAG as previously described in Lapied et al. (Ionic species involved in the electrical activity of single adult aminergic neurones isolated from sixth abdominal ganglion of cockroach Periplaneta americana J Exp Biol 144:535-49, 1989). The isolated neuron cell bodies are used for recordings 24 h after dissociation.
# Electrical activity and neonicotinoïd-induced inward currents are recorded using the patch clamp technique in the whole-cell recording configuration under current-clamp and voltage-clamp mode, respectively. Patch-clamp electrodes are pulled from borosilicate glass capillary tubes (GC150T-10) using a P-97 model puller. Patch pipettes have resistances ranging from 1 to 1.2 MΩ when filled with internal pipette solution. The liquid junction potential between extracellular and intracellular solutions is always corrected before the formation of a giga Ohm seal (>3 GΩ). Signals are recorded with an Axopatch 200A amplifier. […] Under voltage-clamp conditions, DUM neuron somata are voltage-clamped at a steady state holding potential of −50 mV to measure the effects of thiamethoxam or thiacloprid applied alone and after pretreatment with IR3535® (10^−8 M). Experiments are carried out at room temperature.
# [4] = thiamethoxam 10^-6 M, pretreated with IR3535 10^-8 M
smiles,measurement,setting,value
"CCCCN(CCC(=O)OCC)C(C)=O [IR3535®, 3-[N-Butyl-N-acetyl]-aminopropionic acid, ethyl ester]",effect on membrane potential,[1],significant membrane depolarization
same,effect on spontaneous action potential discharge frequency,[1],increase of the spontaneous action potential discharge frequency
same,lower concentration which produces a significant elevation of intracellular calcium concentration,[2]; DUM neurons,10^−8 M
same,origin of the intracellular calcium concentration rise,[2]; IR3535 at 10^-8 M,extracellular calcium through plasma membrane voltage-dependent calcium channels via M1/M3 mAChR sub-type modulation
same,"effect on intracellular calcium concentration, zone I","[2]; IR3535 between 3.10^-9 M and 3.10^-8 M, bath application",transient increase of intracellular calcium concentration
same,"effect on intracellular calcium concentration, zone II",[2]; IR3535 from 10^-7 M to 3.10^-6 M,additional elevation of intracellular calcium concentration
same,origin of the intracellular calcium concentration rise,[2]; higher concentrations of IR3535 (10^-5 M),both extracellular calcium and calcium released from internal stores
same,concentration giving the maximum of the zone I intracellular calcium increase,[2]; zone I (3.10^-9 M to 3.10^-8 M),10^−8 M
same,"concentration giving the maximum effect on intracellular calcium, zone III","[2]; zone III, very high concentration",3.10^−5 M
"CCN(CC)C(=O)c1cccc(C)c1 [DEET, N,N-diethyl-3-methylbenzamide]","ratio of emitted fluorescence (340 nm/380 nm), maximum value",[2]; DEET at 10^-7 M (maximum),0.7
same,ratio of emitted fluorescence (340 nm/380 nm),[2]; DEET between 3.10^-8 M and 3.10^-7 M,above 0.6
same,"effect on intracellular calcium concentration, low concentration range",[2]; DEET from 10^-9 M to 10^-7 M,elevation of the intracellular calcium concentration
same,"effect on intracellular calcium concentration, higher concentrations",[2]; DEET higher than 10^-7 M,important decrease of the intracellular calcium concentration
same,concentration giving the maximum elevation of intracellular calcium concentration,[2]; DEET low concentration range,10^−7 M
CN1COCN(Cc2cnc(Cl)s2)/C1=N\[N+](=O)[O-] [thiamethoxam],"induced inward current, applied alone","[3]; 10^-6 M alone, holding potential -50 mV, n=3-4",inward current with small amplitudes
same,inward current amplitude after pretreatment with low concentration of IR3535 (conclusion),[3],more important
same,"induced inward current, insecticide alone (conclusion)",[3]; alone,inward current with a small amplitude
same,effect of IR3535 pretreatment on induced inward current amplitude,[3]; [4],important increase of the thiamethoxam-induced inward current amplitude
same,mean current amplitude after IR3535 pretreatment relative to applied alone,[3]; [4],about 6 fold
N#C/N=C1\SCCN1Cc1ccc(Cl)nc1 [thiacloprid],concentration giving the maximum increase of inward current amplitude after IR3535 pretreatment,[3]; DUM neuron pretreated with IR3535 10^-8 M,10^−6 M
same,inward current amplitude after pretreatment with low concentration of IR3535 (conclusion),[3],more important
same,"induced inward current, insecticide alone (conclusion)",[3]; alone,inward current with a small amplitude
same,"concentration giving the maximum effect on inward current amplitude, applied alone","[3]; alone, holding potential -50 mV",10^−3 M
same,"effect on inward current amplitude, applied alone","[3]; bath application alone, holding potential -50 mV",dose-dependent increase of the inward current amplitude
same,effect on inward current amplitude at higher concentration after IR3535 pretreatment,"[3]; thiacloprid 10^-5 M, pretreated with IR3535 10^-8 M",important decrease of the current amplitude
